# Source: patent US6992103B2, “Benzamide derivatives, processes for their preparation, and their pharmaceutical use” (SmithKline Beecham P.L.C., priority 2001, dated 2006)
# Like-named read-outs stand apart in the source and are kept apart here.
# How the values were obtained:
# Assay type in all cases: biochemical
# [1] = molecular target: Asp-2 (Homo sapiens, UniProt P56817); test: Asp-2 Inhibitory Assay (FAM-[SEVNLDAEFK]-TAMRA substrate cleavage, fluorescence); settings: Assay (I)
# Protocol: (I) Asp-2 Inhibitory Assay
# (§1) For each compound being assayed, in a 384 well plate, is added:
# (§2) a) 1 μl of a DMSO solution of the test compound (IC50 curve uses ten 1 in 2 serial dilutions from 500 μM).
# b) 10 μl of substrate (FAM-[SEVNLDAEFK]-TAMRA) solution in buffer. This is prepared by diluting 2 ml of a 2 mM DMSO solution of the substrate into 400 ml of buffer (100 mM Sodium acetate pH=4.5, 1 l Milli-Q water, 0.06% Triton X-100 (0.5 ml/l), pH adjusted to 4.5 using glacial acetic acid). Aminomethyl fluorescein (FAM) and tetramethyl rhodamine (TAMRA) are fluorescent molecules which co-operate to emit fluorescence at 535 nm upon cleavage of the SEVNLDAEFK peptide. c) 10 μl enzyme solution. This is prepared by diluting 16 ml of a 500 nM enzyme solution into 384 ml of buffer (prepared as above).
# (§3) Blank wells (enzyme solution replaced by buffer) are included as controls on each plate. Wells are incubated for 1 h at room temperature and fluorescence read using a Tecan Ultra Fluorimeter/Spectrophotometer (485 nm excitation, 535 nm emission).
# [2] = molecular target: T1, Asp-1 (Homo sapiens, UniProt Q9Y5Z0); test: Asp-1 Inhibitory Assay (FAM-[SEVNLDAEFK]-TAMRA substrate cleavage, fluorescence); settings: Assay (II), pH 4.5, 2 h room temperature
# T1 sequence (Q9Y5Z0 63-518): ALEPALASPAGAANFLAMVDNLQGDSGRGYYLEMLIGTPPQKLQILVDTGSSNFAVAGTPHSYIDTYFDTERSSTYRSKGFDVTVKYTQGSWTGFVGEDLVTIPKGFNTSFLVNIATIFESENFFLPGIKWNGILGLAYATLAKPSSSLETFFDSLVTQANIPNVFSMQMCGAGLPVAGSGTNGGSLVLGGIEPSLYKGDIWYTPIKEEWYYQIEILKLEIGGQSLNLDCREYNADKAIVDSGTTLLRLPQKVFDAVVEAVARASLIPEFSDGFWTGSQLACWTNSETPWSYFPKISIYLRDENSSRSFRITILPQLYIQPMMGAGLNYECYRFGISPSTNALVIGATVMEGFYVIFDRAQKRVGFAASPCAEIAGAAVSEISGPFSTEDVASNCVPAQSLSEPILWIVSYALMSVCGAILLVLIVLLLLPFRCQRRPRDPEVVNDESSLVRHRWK
# Protocol: (II) Asp-1 Inhibitory Assay
# as §1, §2
# b) 10 μl of substrate (FAM-[SEVNLDAEFK]-TAMRA) solution in buffer. This is prepared by diluting 2 ml of a 2 mM DMSO solution of the substrate into 400 ml of buffer (100 mM Sodium acetate pH=4.5, 1 l Milli-Q water, 0.06% Triton X-100 (0.5 ml/l), pH adjusted to 4.5 using glacial acetic acid). c) 10 μl enzyme solution. This is prepared by diluting 4 ml of a 6.3 μM enzyme solution into 496 ml of buffer (100 mM Sodium acetate pH=4.5, 40 mM sodium chloride, 900 ml Milli-Q water, 100 ml glycerol, 0.2% CHAPS (2 g/l), pH adjusted to 4.5 using glacial acetic acid).
# Blank wells (enzyme solution replaced by buffer) are included as controls on each plate. Wells are incubated for 2 h at room temperature and fluorescence read using a Tecan Ultra Fluorimeter/Spectrophotometer (485 nm excitation, 535 nm emission).
# [3] = molecular target: Cathepsin D (Homo sapiens, UniProt P07339); test: Cathepsin D Inhibitory Assay (FAM-SEVNLDAEFK-TAMRA substrate cleavage, fluorescence); settings: Assay (III)
# Protocol: (II) Cathepsin D Inhibitory Assay
# as §1, §2
# b) 10 μl of substrate (FAM-SEVNLDAEFK-TAMRA) solution in buffer. This is prepared by diluting 2 ml of a 2 mM DMSO solution of the substrate into 400 ml of buffer (100 mM Sodium acetate pH=4.5, 1 l Milli-Q water, 0.06% Triton X-100 (0.5 ml/l), pH adjusted to 4.5 using glacial acetic acid). c) 10 μl enzyme solution. This is prepared by diluting 1.6 ml of a 200 unit/ml (in 10 mM HCl) enzyme solution into 398.4 ml of buffer (prepared as above).
# as §3
# [4] = pH 4.5, 1 h room temperature, read-out: Asp-2 IC50
# [5] = pH 4.5, 1 h room temperature, read-out: Cat. D IC50
# [6] = range given for a group of Examples, read-out: range of inhibition (Asp-2)
# [7] = range given for a group of Examples, read-out: range of inhibition (CatD)
# Chain of Asp-2 (P56817 46-501): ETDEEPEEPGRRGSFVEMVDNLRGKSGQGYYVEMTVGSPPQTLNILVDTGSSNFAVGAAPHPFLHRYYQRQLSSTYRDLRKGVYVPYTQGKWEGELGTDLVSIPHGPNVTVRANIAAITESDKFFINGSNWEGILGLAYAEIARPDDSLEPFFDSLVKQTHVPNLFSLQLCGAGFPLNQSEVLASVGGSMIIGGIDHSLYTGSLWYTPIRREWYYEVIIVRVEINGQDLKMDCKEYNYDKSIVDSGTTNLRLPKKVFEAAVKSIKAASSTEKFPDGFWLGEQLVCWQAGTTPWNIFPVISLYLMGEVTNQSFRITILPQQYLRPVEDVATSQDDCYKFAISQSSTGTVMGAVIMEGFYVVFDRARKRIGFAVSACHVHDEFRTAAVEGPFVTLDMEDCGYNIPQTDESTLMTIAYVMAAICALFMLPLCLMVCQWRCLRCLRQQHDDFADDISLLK
# Chain of Cathepsin D (P07339 65-412, species assumed): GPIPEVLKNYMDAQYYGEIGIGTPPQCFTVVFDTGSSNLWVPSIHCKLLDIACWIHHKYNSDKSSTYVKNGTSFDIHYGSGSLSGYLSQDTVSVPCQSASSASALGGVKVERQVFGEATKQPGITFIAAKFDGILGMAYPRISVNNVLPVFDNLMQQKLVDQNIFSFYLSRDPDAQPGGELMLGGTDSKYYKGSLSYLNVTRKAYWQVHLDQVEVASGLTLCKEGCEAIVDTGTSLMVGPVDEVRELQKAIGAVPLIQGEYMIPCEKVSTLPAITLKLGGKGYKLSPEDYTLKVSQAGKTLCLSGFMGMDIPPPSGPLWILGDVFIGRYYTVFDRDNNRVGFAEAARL
SMILES,"IC50 [1, 4] [nM]",IC50 [2] [nM],"IC50 [3, 5] [nM]","IC50 [1, 6] [nM]","IC50 [3, 7] [nM]"
"C[C@H](C[C@H](O)[C@H](Cc1ccccc1)NC(=O)c1ccc(F)c(N2CCCC2=O)c1)C(=O)NCCC(C)(C)C (stereo in doubt) [Example E1, N-[(1S,2S,4R)-1-Benzyl-4-(3,3-dimethylbutylcarbamoyl)-2-hydroxypentyl]-4-fluoro-3-(2-oxopyrrolidin-1-yl)-benzamide]",600,6000,13000,,
"C=CCOc1cc(C(=O)N[C@@H](Cc2ccccc2)[C@@H](O)C[C@@H](C)C(=O)NCCC(C)(C)C)cc(N2CCCC2=O)c1 [Example E3, 3-Allyloxy-N-[(1S,2S,4R)-1-benzyl-4-(3,3-dimethylbutylcarbamoyl)-2-hydroxypentyl]-5-(2-oxopyrrolidin-1-yl)-benzamide]",60,420,2900,,
"CCCOc1cc(C(=O)N[C@@H](Cc2ccccc2)[C@@H](O)C[C@@H](C)C(=O)NCCC(C)(C)C)cc(N2CCCC2=O)c1 [Example E4, N-[(1S,2S,4R)-1-Benzyl-4-(3,3-dimethylbutylcarbamoyl)-2-hydroxypentyl]-3-(2-oxopyrrolidin-1-yl)-5-propoxybenzamide]",35,150,1800,,
"C[C@H](C[C@H](O)[C@H](Cc1ccccc1)NC(=O)c1cccc(N2CCCC2=O)c1F)C(=O)NC1CC2CCC1C2 (stereo partly drawn) [Example E21, N-[(1S,2S,4R)-1-Benzyl-4-(bicyclo[2.2.1]hept-2-ylcarbamoyl)-2-hydroxypentyl]-2-fluoro-3-(2-oxopyrrolidin-1-yl)-benzamide]",,,,2 to 30,340 to 3000
"CC(C)Oc1cc(C(=O)N[C@@H](Cc2ccccc2)[C@@H](O)C[C@@H](C)C(=O)NC2CCC2)cc(N2CCCC2=O)c1 [Example E26, N-[(1S,2S,4R)-1-Benzyl-4-(cyclobutylcarbamoyl)-2-hydroxypentyl]-3-isopropoxy-5-(2-oxopyrrolidin-1-yl)benzamide]",,,,2 to 30,340 to 3000
"C[C@H](C[C@H](O)[C@H](Cc1ccccc1)NC(=O)c1cc(N2CCCC2=O)cc(N2CCCC2=O)c1F)C(=O)NC1CCC(C(C)(C)C)CC1 (stereo partly drawn) [Example E32, N-[(1S,2S,4R)-1-Benzyl-4-(4-tert-butylcyclohexylcarbamoyl)-2-hydroxypentyl]-2-fluoro-3,5-bis-(2-oxopyrrolidin-1-yl)benzamide]",,,,2 to 30,340 to 3000

# Second part, the compound after the results:
"IC50 [1, 4] [nM]",IC50 [2] [nM],"IC50 [3, 5] [nM]","IC50 [1, 6] [nM]","IC50 [3, 7] [nM]",SMILES
,,,2 to 30,340 to 3000,"C[C@H](C[C@H](O)[C@H](Cc1ccccc1)NC(=O)c1cc(N2CCCC2=O)cc(N2CCCC2=O)c1)C(=O)NC1CC2CCC1C2 (stereo partly drawn) [Example E8, N-[(1S,2S,4R)-1-Benzyl-4-(bicyclo[2.2.1]hept-2-ylcarbamoyl)-2-hydroxypentyl]-3,5-bis-(2-oxopyrrolidin-1-yl)benzamide]"
,,,2 to 30,340 to 3000,"CC(=O)Nc1cc(C(=O)N[C@@H](Cc2ccccc2)[C@@H](O)C[C@@H](C)C(=O)NC2CC3CCC2C3)cc(N2CCCC2=O)c1 (stereo partly drawn) [Example E10, 3-Acetylamino-N-[(1S,2S,4R)-1-benzyl-4-(bicyclo[2.2.1]hept-2-ylcarbamoyl)-2-hydroxypentyl]-5-(2-oxopyrrolidin-1-yl)benzamide]"
,,,2 to 30,340 to 3000,"CC(C)Oc1cc(C(=O)N[C@@H](Cc2ccccc2)[C@@H](O)C[C@@H](C)C(=O)NC2CC3CCC2C3)cc(N2CCCC2=O)c1 (stereo partly drawn) [Example E14, N-[(1S,2S,4R)-1-Benzyl-4-(bicyclo[2.2.1]hept-2-ylcarbamoyl)-2-hydroxypentyl]-3-isopropoxy-5-(2-oxopyrrolidin-1-yl)benzamide]"
,,,2 to 30,340 to 3000,"C[C@H](C[C@H](O)[C@H](Cc1ccccc1)NC(=O)c1cc(N2CCCC2=O)cc(N2CCCC2=O)c1F)C(=O)NC1CC2CCC1C2 (stereo partly drawn) [Example E22, N-[(1S,2S,4R)-1-Benzyl-4-(bicyclo[2.2.1]hept-2-ylcarbamoyl)-2-hydroxypentyl]-2-fluoro-3,5-bis-(2-oxopyrrolidin-1-yl)benzamide]"
